Patent US4748161A, “Triterpenyl esters of organic acids and hypolipidemic agents composed of them” (Amano Pharmaceutical Co., Ltd., priority 1984, dated 1988)

How the values were obtained:
[1] = Body weight of rats in method B; design: species or system male Wistar strain rats; settings: rat, in vivo
Protocol: Male Wistar strain rats (100±1 g, each 8 rats were formed into a group except that the control group fed with a hyperlipidemic diet was formed of 16 rats) were used as test animals. A powdery diet (CE-2, supplied by Clea Japan, Inc.) was used as ordinary diet. The hyperlipidemic diet was prepared by fortifying the ordinary diet with cholesterol (1%) and cholic acid (0.5%). Each test compound (1%) for administration was admixed with the hyperlipidemic diet. Each two rats were kept in a cage and given the prescribed diet and water ad libitum. Thus the rats were fed for 4 weeks at a constant temperature of 23±1° C. and a constant R.H. of 55±5%. Finally, the rats were fasted from food except water for 16 hours (from 4 p.m. of the 28th test day to 8 a.m. of the 29th test day), and under anesthesia with pentbarbital sodium (tradename: Nembutal), blood was taken from each rat through the descending abdominal arota. Then, TC, HDL-C, TG, PL, and LPO in the serum were measured in the following manner.

[2] = system: serum lipids and serum lipid hydroperoxide; test: Pharmacological test method B for anti-hyperlipidemic activity (serum lipids, 4 weeks feeding); format: in vivo, male Wistar strain rats; settings: 1% in hyperlipidemic diet, 4 weeks
Method in brief: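 Male Wistar rats (100±1 g, n=8; hyperlipidemic control n=16) were fed for 4 weeks a diet with 1% cholesterol and 0.5% cholic acid, with test compound admixed at 1%. After a 16 h fast, serum was taken from the abdominal aorta under pentobarbital. TC, HDL-C and PL were measured by enzymatic colorimetric kits at 500 nm; TG by acetylacetone kit; LPO also measured.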

male ddy strain mice = test: Acute toxicity test, mice, oral; format: in vivo, mouse (male ddy strain); settings: 0.1 to 5 g/Kg; for Mortality: 2 weeks observation
Protocol: (§1) Acute toxicity tests were conducted using 5 male ddy strain mice (30±2 g) and 5 male Wistar strain rats (100±2 g) for each compound by oral administration.
(§2) The above 66 compounds of esters, and as control drugs, cycloartenol, 24-methylenecycloartanol, cyclobranol, and γ-orizanol were given forcibly to the above-mentioned mice and rats by means of a throat explorer rod in doses of 0.1 to 5 g/Kg for mice and 2 to 6 g/Kg for rats. During the test, the temperature of the animal room was kept at 22° to 23 ° C. […] In the inspection conducted after 2-week observation, no macroscopic lesion was found in any part of main organs. Thus the compound of the invention has very low toxicity, so that the LD50 value could not determined.

male Wistar strain rats = test: Acute toxicity test, rats, oral; format: in vivo, rat (male Wistar strain); settings: 2 to 6 g/Kg; for Mortality: 2 weeks observation
Protocol: as §1, §2

serum TC = settings: 1% added to diet containing 0.5% of cholesterol; cited from earlier work
[3] = system: serum lipids and serum lipid hydroperoxide; test: Pharmacological test method A for anti-hyperlipidemic activity (serum lipids, 2 weeks feeding); format: in vivo, male Wistar strain rats
Method in brief: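 Male Wistar rats (100±lg, 10 per group) fed 10 g/day for 2 weeks of a 1% cholesterol/0.5% cholic acid diet, test groups with 1% each of cycloartenol, 24-methylenecycloartanol and cyclobranol. After 16 h fast, aortic blood serum assayed enzymatically/colorimetrically for TC, HDL-C, TG, PL, LPO.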

serum lipids = settings: 0.2% in high cholesterol diet, cited from earlier work; for TG level lowering: not significant; for TC level lowering: significant

C=C(CCC(C)C1CCC2(C)C3CCC4C(C)(C)C(OC(=O)C(C)=Cc5ccc(N)c(OC)c5)CCC45CC35CCC12C)C(C)C (stereo not drawn) [Example 191, 24-Methylenecycloartanyl ester of 4-amino-3-methoxy-α-methylcinnamic acid]
Body weight during feed period, 1st day [1]: 104 ± 3.7 g
Body weight during feed period, 8th day [1]: 142 ± 9.6 g
Body weight during feed period, 15th day [1]: 188 ± 12.9 g
Body weight during feed period, 22nd day [1]: 239 ± 14.9 g
Body weight during feed period, 28th day [1]: 268 ± 21.7 g
Body weight just before blood sampling, 29th day [1]: 257 ± 20.6 g
AI [(TC - HDL-C)/(HDL-C)] [2]: 5.634
HDL-C in serum [2]: 28.4 mg/dL
LPO in serum [2]: 2.08 nmol/mL
PL in serum [2]: 117.3 mg/dL
TC in serum [2]: 188.4 mg/dL
TG in serum [2]: 60.4 mg/dL

C=C(CCC(C)C1CCC2(C)C3CCC4C(C)(C)C(OC(=O)C(C)=Cc5cc(N)ccc5OCCC)CCC45CC35CCC12C)C(C)C (stereo not drawn) [Example 197, 24-Methylenecycloartanyl ester of 5-amino-2-propoxy-α-methylcinnamic acid]
Body weight during feed period, 1st day [1]: 104 ± 3.4 g
Body weight during feed period, 8th day [1]: 142 ± 8.4 g
Body weight during feed period, 15th day [1]: 188 ± 13.6 g
Body weight during feed period, 22nd day [1]: 239 ± 16.2 g
Body weight during feed period, 28th day [1]: 268 ± 20.8 g
Body weight just before blood sampling, 29th day [1]: 257 ± 20.4 g
AI [(TC - HDL-C)/(HDL-C)] [2]: 7.177
HDL-C in serum [2]: 27.1 mg/dL
LPO in serum [2]: 2.05 nmol/mL
PL in serum [2]: 115.5 mg/dL
TC in serum [2]: 221.6 mg/dL
TG in serum [2]: 61.2 mg/dL

CC(C)=CCCC(C)C1CCC2(C)C3CCC4C(C)(C)C(OC(=O)C(C)=Cc5ccc(N)cc5)CCC45CC35CCC12C (stereo not drawn) [Example 205, Cycloartenyl ester of p-amino-α-methylcinnamic acid]
Body weight during feed period, 1st day [1]: 105 ± 3.7 g
Body weight during feed period, 8th day [1]: 142 ± 9.8 g
Body weight during feed period, 15th day [1]: 188 ± 13.2 g
Body weight during feed period, 22nd day [1]: 238 ± 19.8 g
Body weight during feed period, 28th day [1]: 267 ± 20.4 g
Body weight just before blood sampling, 29th day [1]: 256 ± 19.2 g
AI [(TC - HDL-C)/(HDL-C)] [2]: 4.144
HDL-C in serum [2]: 37.4 mg/dL
LPO in serum [2]: 2.02 nmol/mL
PL in serum [2]: 113.1 mg/dL
TC in serum [2]: 192.4 mg/dL
TG in serum [2]: 60.3 mg/dL

CC(=Cc1cccc(N)c1)C(=O)OC1CCC23CC24CCC2(C)C(C(C)CCC(C)=C(C)C)CCC2(C)C4CCC3C1(C)C (stereo not drawn) [Example 212, Cyclobranyl ester of m-amino-α-methylcinnamic acid]
Body weight during feed period, 1st day [1]: 104 ± 3.3 g
Body weight during feed period, 8th day [1]: 143 ± 9.2 g
Body weight during feed period, 15th day [1]: 190 ± 18.6 g
Body weight during feed period, 22nd day [1]: 239 ± 15.8 g
Body weight during feed period, 28th day [1]: 268 ± 21.4 g
Body weight just before blood sampling, 29th day [1]: 257 ± 19.0 g
AI [(TC - HDL-C)/(HDL-C)] [2]: 4.242
HDL-C in serum [2]: 37.2 mg/dL
LPO in serum [2]: 2.01 nmol/mL
PL in serum [2]: 112.9 mg/dL
TC in serum [2]: 195.0 mg/dL
TG in serum [2]: 59.7 mg/dL

CC(C)=CCC[C@@H](C)[C@H]1CC[C@@]2(C)[C@@H]3CC[C@H]4C(C)(C)[C@@H](O)CC[C@@]45C[C@@]35CC[C@]12C [Sample 1, cycloartenol]
Symptoms of toxicosis (male ddy strain mice): no symptom of toxicosis appeared
Mortality (male ddy strain mice): none of the animals died
Symptoms of toxicosis (male Wistar strain rats): no symptom of toxicosis appeared
Mortality (male Wistar strain rats): none of the animals died
percentage of TC lowering (serum TC): 13.7%
AI change [3]: showed tendencies to decrease it

CC(C)=C(C)CCC(C)C1CCC2(C)C3CCC4C(C)(C)C(O)CCC45CC35CCC12C (centres unmarked) [Sample 2, cyclobranol]
Symptoms of toxicosis (male ddy strain mice): no symptom of toxicosis appeared
Mortality (male ddy strain mice): none of the animals died
Symptoms of toxicosis (male Wistar strain rats): no symptom of toxicosis appeared
Mortality (male Wistar strain rats): none of the animals died
AI change [3]: showed tendencies to decrease it

C=C(CCC(C)C1CCC2(C)C3CCC4C(C)(C)C(O)CCC45CC35CCC12C)C(C)C (centres unmarked) [Sample 3, 24-methylenecycloartanol]
Symptoms of toxicosis (male ddy strain mice): no symptom of toxicosis appeared
Mortality (male ddy strain mice): none of the animals died
Symptoms of toxicosis (male Wistar strain rats): no symptom of toxicosis appeared
Mortality (male Wistar strain rats): none of the animals died
percentage of TC lowering (serum TC): 10.2%
AI change [3]: only a slight tendency to increase

O=C(O)/C=C/c1ccc(O)c(O)c1 [caffeic acid]
decrease of TC, TG, or PL level (serum lipids): no decrease

O=C(O)C=Cc1ccccc1 [cinnamic acid]
decrease of TC, TG, or PL level (serum lipids): no decrease

COc1cc(/C=C/C(=O)O)ccc1O [ferulic acid, 4-hydroxy-3-methoxycinnamic acid]
TG level lowering (serum lipids): 18.7%
TC level lowering (serum lipids): 10.8%
PL level lowering (serum lipids): scarcely observed

O=C(O)/C=C/c1ccc(O)cc1 [p-coumaric acid]
TG level lowering (serum lipids): 19.8%
TC level lowering (serum lipids): 9.4%
PL level lowering (serum lipids): scarcely observed

COc1cc(C(=O)O)ccc1O [vanillic acid]
decrease of TC, TG, or PL level (serum lipids): no decrease
